Measurements published in patent US9790233B2, “Compositions and methods of modulating 15-PGDH activity” (CASE WESTERN RESERVE UNIVERSITY, priority 2012, dated 2017).

Tests used:
[1] = tested on: 15-PGDH-luciferase fusion reporter in V9m, LS174T and V503 cells; test: 15-PGDH-luciferase fusion gene reporter induction, stated for the three cell line backgrounds together; format: cell-based; conditions: V9m, LS174T, V503; FIG. 1
colon = test: Dextran sodium sulfate (DSS) induced colitis; format: in vivo, FVB mice
bone marrow = test: Bone marrow analysis of treated C57BL/6J mice; format: in vivo; conditions: IP 5 mg/kg or 20 mg/kg
Excerpt: FIGS. […] Experimental conditions are noted on the figure.

[2] = Survival following acetaminophen (Tylenol) overdose; format: in vivo, C57BL/6J mice
A549 cells = test: PGE2 levels in the medium of IL1-beta stimulated A549 cells; format: cell-based;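 further: PGE2 in the collected culture medium quantified by enzyme immunoassay (ELISA), with data drawn from three independent experiments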
15-PGDH mRNA = 15-PGDH mRNA levels by real-time PCR; format: cell-based
Hepatocyte stability = format: in vitro ADME
Description: Time to inhibition refers to the time needed to inhibit the generation of NADH by 15-PGDH from the moment with drug is added into the reaction mix. Delta Tm refers to the shift in melting temperature of recombinant 15-PGDH in the presence of drug (with cofactor NADH also present). Concentration of Full Cell Line Reporter Induction refers to the concentration of drug that needs to be added to reporter cell line to achieve maximal induction of the 15-PGDH-luciferase gene fusion reporter cassette, as measured by luciferase assays. Hepatocyte stability refers to the half-life of compound in the presence of hepatocytes in culture. Toxicity refers to the concentration of compound needed to decrease cell numbers in a cell culture assay.

CD45.2 marked marrow = test: Competitive bone marrow transplant, blood chimerism; format: in vivo, C57BL/6J mice; conditions: donors 5 mg/kg IP daily for 3 doses; weeks 12 and 16
Description: On day 3 mice were sacrificed, marrow flushed and mixed at a 1:1 ratio with vehicle treated CD45.1 marrow. 2 million whole BM cells were injected into the tail vein of lethally irradiated CD45.1 mice and percent chimerism measured via flow cytometry at weeks 8, 12, 16.

[3] = Survival after whole body irradiation; format: in vivo, C57BL/6J mice

In the case of `CCCC[S+]([O-])c1sc2nc(-c3cccs3)cc(-c3ccccc3)c2c1N` (centres unmarked) [SW033291, 2-(butylsulfinyl)-4-phenyl-6-(thiophen-2-yl)thieno[2,3-b]pyridin-3-amine], the “luciferase activity of cells expressing 15-PGDH luciferase fusion construct” value [1] is reported as “increase luciferase activity”, the “change from baseline weight versus control” value (colon; 22 days) is reported as “greater weight at all time points” and the ulcer formation prevented (colon; colonoscopy days 8, 11, 15) is reported as “two-thirds”. For the same compound, the “reduction of length of ulcerated mucosa” value (colon; day 15) was 61%, the “body weight and colon length versus control” value (colon; day 22) was “greater body weight and greater colon lengths” and the “MEICS scores versus control” value (colon; days 8, 11 and 15) was “significantly less colitis activity”. For the same compound, the “percent of SKL cells” value (bone marrow) was “unchanged”, the “number of mice surviving” value ([2]; 1 dose/daily, first dose immediately after Tylenol, 24 hrs) was 6 and the “number of mice surviving” value ([2]; 2 dose/daily, first dose immediately after Tylenol, 24 hrs) was 6. The “number of mice surviving” value ([2]; 2 dose/daily, first dose immediately after Tylenol, 48 hrs) was 3, the “number of mice surviving” value ([2]; 2 dose/daily, first dose immediately after Tylenol, 64 hrs) was 3 and the “number of mice surviving” value ([2]; 2 dose/daily, first dose immediately after Tylenol, 72 hrs) was 3. For the same compound, the “number of mice surviving” value ([2]; 2 dose/daily, first dose immediately after Tylenol, 88 hr) was 3, the “number of mice surviving” value ([2]; 2 dose/daily, first dose immediately after Tylenol, 96 hr) was 3 and the “number of mice surviving” value ([2]; 2 dose/daily, first dose immediately after Tylenol, 112 hr) was 3. The “number of mice surviving” value ([2]; 2 dose/daily, first dose immediately after Tylenol, 120 hr) was 3, the “number of mice surviving” value ([2]; acetaminophen 600 mg/kg, 5 mg/kg 1 dose/daily, first dose immediately after Tylenol injection, 16 hr) was 6 and the “number of mice surviving” value ([2]; acetaminophen 600 mg/kg, 5 mg/kg 2 dose/daily, first dose immediately after Tylenol injection, 16 hr) was 6. For the same compound, the “Survival (number of mice)” value ([2]; acetaminophen 600 mg/kg, 5 mg/kg bid beginning 3 hours prior to acetaminophen, 6 doses, cohort of 6, 16 hr) was 6, the “Survival (number of mice)” value ([2]; acetaminophen 600 mg/kg, 5 mg/kg bid beginning 48 hours prior to acetaminophen, 9 doses, cohort of 12, 16 hr) was 12 and the “mice survived at 120 hours” value ([2]; bid beginning 3 hours prior to acetaminophen) was 3 of 6. For the same compound, the “Survival (number of mice)” value ([2]; bid beginning 3 hours prior to acetaminophen, 24 hrs) was 5, the “Survival (number of mice)” value ([2]; bid beginning 3 hours prior to acetaminophen, 48 hrs) was 3 and the “Survival (number of mice)” value ([2]; bid beginning 3 hours prior to acetaminophen, 64 hrs) was 3. For the same compound, the “Survival (number of mice)” value ([2]; bid beginning 3 hours prior to acetaminophen, 72 hrs) was 3, the “Survival (number of mice)” value ([2]; bid beginning 3 hours prior to acetaminophen, 88 hr) was 3 and the “Survival (number of mice)” value ([2]; bid beginning 3 hours prior to acetaminophen, 96 hr) was 3. For the same compound, the “Survival (number of mice)” value ([2]; bid beginning 3 hours prior to acetaminophen, 112 hr) was 3, the “Survival (number of mice)” value ([2]; bid beginning 3 hours prior to acetaminophen, 120 hr) was 3 and the “mice survived at 120 hours” value ([2]; bid beginning 48 hours prior to acetaminophen) was 10 of 12. For the same compound, the “Survival (number of mice)” value ([2]; bid beginning 48 hours prior to acetaminophen, 24 hrs) was 12, the “Survival (number of mice)” value ([2]; bid beginning 48 hours prior to acetaminophen, 40 hrs) was 11 and the “Survival (number of mice)” value ([2]; bid beginning 48 hours prior to acetaminophen, 48 hrs) was 10. For the same compound, the “Survival (number of mice)” value ([2]; bid beginning 48 hours prior to acetaminophen, 64 hrs) was 10, the “Survival (number of mice)” value ([2]; bid beginning 48 hours prior to acetaminophen, 72 hrs) was 10 and the “Survival (number of mice)” value ([2]; bid beginning 48 hours prior to acetaminophen, 88 hr) was 10. The “Survival (number of mice)” value ([2]; bid beginning 48 hours prior to acetaminophen, 96 hr) was 10, the “Survival (number of mice)” value ([2]; bid beginning 48 hours prior to acetaminophen, 112 hr) was 10 and the “Survival (number of mice)” value ([2]; bid beginning 48 hours prior to acetaminophen, 120 hr) was 10. For the same compound, the “survival versus control mice” value ([2]; dosing begun immediately following acetaminophen, once or twice daily) was “No difference”, the “rank of PGE2 level in the medium” value (A549 cells; 100 nM drug, FIG. 44) was “next highest level of PGE2” and the “PGE2 levels in medium” value (A549 cells; IL1-beta 23 hours, compound added for the last 5 hours) was “clear inhibition of 15-PGDH activity”. The “15-PGDH mRNA levels (real-time PCR)” value (15-PGDH mRNA; V503 cells) was “slight increase in 15-PGDH mRNA”, the “15-PGDH mRNA levels (real-time PCR)” value (15-PGDH mRNA; treated colon cancer cell lines) was “do not in general alter 15-PGDH mRNA levels” and the Hepatocyte stability (Hepatocyte stability; Table 4) was “Stable >”. For the same compound, the Hepatocyte stability (Hepatocyte stability; half-life in presence of hepatocytes in culture, Table 3) was “Stable > couple”, the “percent blood chimerism of CD45.2 marked cells” value (CD45.2 marked marrow) was “significantly increased” and the “number of mice surviving” value ([3]; 7 Gy, 5 mg/kg IP daily for 7 doses, Day 5) was 3. The “number of mice surviving” value ([3]; 7 Gy, Day 6) was 3, the “number of mice surviving” value ([3]; 7 Gy, Day 7) was 3 and the “number of mice surviving” value ([3]; 7 Gy, Day 8) was 3. For the same compound, the “number of mice surviving” value ([3]; 7 Gy, Day 9) was 3, the “number of mice surviving” value ([3]; 7 Gy, Day 10) was 3 and the “number of mice surviving” value ([3]; 7 Gy, Day 11) was 3. The “number of mice surviving” value ([3]; 7 Gy, Day 12) was 3, the “number of mice surviving” value ([3]; 7 Gy, Day 13) was 3 and the “number of mice surviving” value ([3]; 7 Gy, Day 14) was 3. The “number of mice surviving” value ([3]; 7 Gy, Day 15) was 3, the “appearance of surviving mice” value ([3]; 7 Gy, Day 25 (cell wraps: Looks / Healthy)) was “Looks” and the “number of mice surviving” value ([3]; 9 Gy, 5 mg/kg IP daily for 7 doses, Day 5) was 3. For the same compound, the “number of mice surviving” value ([3]; 9 Gy, Day 6) was 3, the “number of mice surviving” value ([3]; 9 Gy, Day 7) was 3 and the “number of mice surviving” value ([3]; 9 Gy, Day 8) was 3. The “number of mice surviving” value ([3]; 9 Gy, Day 9) was 3, the “number of mice surviving” value ([3]; 9 Gy, Day 10) was 3 and the “number of mice surviving” value ([3]; 9 Gy, Day 11) was 3. The “number of mice surviving” value ([3]; 9 Gy, Day 12) was 2, the “number of mice surviving” value ([3]; 9 Gy, Day 13) was 2 and the “number of mice surviving” value ([3]; 9 Gy, Day 14) was 1. The “number of mice surviving” value ([3]; 9 Gy, Day 15) was 0, the “number of mice surviving” value ([3]; 11 Gy, 5 mg/kg 1 dose/daily for 7 days, Day 5) was 3 and the “number of mice surviving” value ([3]; 11 Gy, 5 mg/kg 1 dose/daily, continuous every day, Day 5) was 3. For the same compound, the “number of mice surviving” value ([3]; 11 Gy, 5 mg/kg IP daily for 7 doses, Day 5) was 3, the “number of mice surviving” value ([3]; 11 Gy, 5 mg/kg, 7 days, 2 dose daily, Day 5) was 3 and the “number of mice surviving” value ([3]; 11 Gy, 1 dose/daily for 7 days, Day 6) was 3. For the same compound, the “number of mice surviving” value ([3]; 11 Gy, 1 dose/daily for 7 days, Day 7) was 3, the “number of mice surviving” value ([3]; 11 Gy, 1 dose/daily for 7 days, Day 8) was 2 and the “number of mice surviving” value ([3]; 11 Gy, 1 dose/daily for 7 days, Day 9) was 1. The “number of mice surviving” value ([3]; 11 Gy, 1 dose/daily for 7 days, Day 10) was 0, the “number of mice surviving” value ([3]; 11 Gy, 1 dose/daily, continuous every day, Day 6) was 3 and the “number of mice surviving” value ([3]; 11 Gy, 1 dose/daily, continuous every day, Day 7) was 3. For the same compound, the “number of mice surviving” value ([3]; 11 Gy, 1 dose/daily, continuous every day, Day 8) was 3, the “number of mice surviving” value ([3]; 11 Gy, 1 dose/daily, continuous every day, Day 9) was 2 and the “number of mice surviving” value ([3]; 11 Gy, 1 dose/daily, continuous every day, Day 10) was 0. The “number of mice surviving” value ([3]; 11 Gy, 7 days, 2 dose daily, Day 6) was 3, the “number of mice surviving” value ([3]; 11 Gy, 7 days, 2 dose daily, Day 7) was 3 and the “number of mice surviving” value ([3]; 11 Gy, 7 days, 2 dose daily, Day 8) was 3. For the same compound, the “number of mice surviving” value ([3]; 11 Gy, 7 days, 2 dose daily, Day 9) was 2, the “number of mice surviving” value ([3]; 11 Gy, 7 days, 2 dose daily, Day 10) was 0 and the “number of mice surviving” value ([3]; 11 Gy, Table 7, Day 6) was 3. The “number of mice surviving” value ([3]; 11 Gy, Table 7, Day 7) was 3, the “number of mice surviving” value ([3]; 11 Gy, Table 7, Day 8) was 3 and the “number of mice surviving” value ([3]; 11 Gy, Table 7, Day 9) was 2. The “number of mice surviving” value ([3]; 11 Gy, Table 7, Day 10) was 0 and the “longer survival than vehicle control, on average” value ([3]; 11 Gy, any of the dosing schedules) was 1 to 2 days.
